Test results from patent US7070942B2, “Method of inducing or enhancing chondrogenesis with extracellular matrix containing GDF-5” (DePuy Spine, Inc., priority 1998, dated 2006).

Legend:
[1] = system: GDF-5/type I collagen-induced chondrogenesis; assay: Inhibitors of intracellular signaling mediators on GDF-5/type I collagen-induced chondrogenesis; assay type: cell-based; settings: GDF-5 in the context of type I collagen
From the text: The molecular signaling mechanism by which GDF-5 induces chondrogenesis in the context of type I collagen was also examined using well-characterized inhibitors of intracellular signaling mediators. […] The known inhibitory effect of rapamycin on activation of p70S6 kinase indicate that GDF-5/type I collagen-induced chondrogenesis is mediated through p70S6 kinase activation.

MC3T3-E1 cells = settings: well differentiated osteoblastic MC3T3-E1 cells; cited from earlier work
rat limb bud cells = settings: cited from earlier work
FRC cells [2] = assay: Semiquantitative PCR of aggrecan, type II collagen and type I collagen mRNA in FRC culture treated with GDF-5 in the presence of type I collagen; assay type: cell-based, rat; settings: FRC with GDF-5 in the presence of type I collagen
From the text: To examine correlation of changes in cellular morphology with the process of chondrogenesis, total cellular RNA and protein were isolated from FRC culture treated with GDF-5 in the presence of type I collagen. Total cellular RNA isolated from FRC cells was subjected to a semiquantitative PCR analysis using specific primers designed to amplify aggrecan, type II collagen or type I collagen. […] Under these conditions, type I collagen mRNA expression decreased by about 20%. The expression of aggrecan and type II collagen was confirmed using slot blot analysis.

[3] = system: rat osteoprogenitor cells ROB-C26; settings: cited from earlier work
FRC [4] = assay: FRC seeded in porous type I collagen matrix, RT-PCR and histology with alcian or Toludine blue staining; assay type: cell-based, rat; settings: GDF-5 100 ng/ml, 3 weeks
Method: A porous matrix fabricated from type I collagen was seeded by, 1×10^5 cell per implant (2×3×3 mm). Cells embedded in matrices were then cultured for 3 weeks in culture supplemented with or without GDF-5 (100 ng/ml). Total RNA isolated from each implant were then subjected to RT-PCR. […] In parallel the implant material was subject to histological evaluation followed by alcian or Toludine blue staining. […] Under these conditions FRC cells were not able to proliferate and differentiate in the ECM in the absence of GDF-5 as measured by histological evaluation total DNA, RNA or protein content.

[5] = system: fetal rat calvarial cells (FRC's); assay: Fetal rat calvarial cells plated on purified extracellular matrix proteins with GDF-5; chondrogenic nodule formation, alcian blue stain; assay type: cell-based; settings: GDF-5 100 ng/ml
Method: To show in vitro application, fetal rat calvarial cells (FRC's) were plated on various purified extracellular matrix proteins in the presence of recombinant human GDF-5 (100 ng/ml) for 3 weeks and scored for differentiation at the level of morphology, overall proteoglycan synthesis and deposition, and aggrecan and type II collagen expression. […] Chondrogenic nodules stained heavily with alcian blue and were positive for type II collagen and aggrecan-expression, as judged by immunohistochemical and transcriptional analyses. Cells in monolayer that surround the nodules were negative for the chondrogenic markers.
Plastic plates were first coated with different ECM proteins including type I and II collagen, type IV collagen, or fibronectin. […] Plastic culture 12 well (Costar, Cambridge, Mass.) were coated with 0.01% (w/v) of the indicated extracellular matrix proteins for 2 hours at 37° C. After removal of nonadsorbant protein, fetal rat calvarial cells were plated at a density of 2×10^5 cells/well in DMEM containing 10% FBS. Culture plates were then maintained for 21 days in culture media supplemented with or without GDF-5 (100 ng/ml). Plates were then stained overnight with alcian blue stain (0.5% w/v in 3% acetic acid), washed and photographed. For quantitation of alcian blue, cells were solubilized in 8M urea, and the amount of stain was quantitated using spectrophotometer (Molecular Devices, Sunnyvale, Calif.).

FRC cells [6] = assay: FRC in 3D collagen-based matrices of different porosity, with or without hyaluronic acid coating, semi-quantitative PCR; assay type: cell-based, rat; settings: only in matrices coated with hyaluronic acid with the highest porosity (about 300 micron); GDF-5 100 ng/ml, 3 weeks
Method: Each matrix composite was either coated with or without hyaluronic acid, a major component of cartilage. The implants were then seeded with 1×10^5 cells per implant and cultured for 3 weeks in the presence of GDF-5 (100 ng/ml). Total RNA extracted from each implant were then subjected to semi-quantitative PCR analysis. […] Together these findings indicate that GDP-5 chondrogenesis activity is fully and potently synergized by a matrix which contain 1) high pore size (about 100-300 micron); and 2) is composed of type I collagen which is coated with hyaluronic acid.

Sprague-Dawley rats = assay: Rat soft tissue implants, intramuscular, alkaline phosphatase activity and histology at 14 days; assay type: in vivo
From the text: In vivo activity of rhGDF-5 on collagen-based matrices.
In Vivo Assays, Rat Soft Tissue Implants: Matrix/growth factor combinations were implanted either subcutaneously in the thoracic region or intramuscularly in posterior tibial muscle pouches created by blunt dissection in 8 week old male Sprague-Dawley rats. At 14 days post-surgery, implants were harvested, weighed and processed for routine histology (fixed in 10% formalin, paraffin-embedded, sectioned to 6 μm, and hematoxylin and eosin stained). Alternatively, implants were extracted and assayed for alkaline phosphatase activity.

[7] = system: heterodimer of receptor for BMPs; settings: cited from earlier work
FRC cells [8] = assay: Immunoblot of total cell lysates for type II collagen or aggrecan; assay type: cell-based, rat
Method: Total cell lysates (100 ug) were electrophoretically separated on a 8% or 5% SDSPAGE, transferred to immobilon-P and immunoblotted using antibody specific to type II collagen or aggrecan.

FRC [9] = assay: Chondrogenesis by monochromatic staining of FRC cultured in the presence of type I collagen and various growth factors; assay type: cell-based, rat; settings: FRC in the presence of type I collagen
Method: The growth and differentiation factor-induced chondrogenesis is highly specific to GDF-5. It was shown that ECM-dependent chondrogenesis by GDF-5 is highly specific, by evaluating the ability of several mitogens and prototype differentiation factors under the following conditions. Chondrogenesis was assessed by monochromatic staining of FRC cultured in the presence of type I collagen and various growth factors.

CNc1ccc2oc(C[C@H]3O[C@@]4(CC[C@H]3C)O[C@H]([C@H](C)C(=O)c3ccc[nH]3)[C@H](C)C[C@H]4C)nc2c1C(=O)O [A23187]
inhibition of ligand-dependent chondrogenesis [1]: completely inhibited

O=C(O)CN(CCOCCOCCN(CC(=O)O)CC(=O)O)CC(=O)O [EGTA]
inhibition of ligand-dependent chondrogenesis [1]: not

[Na+].[Na+].[Na+].[O]=[V]([O-])([O-])[O-] [Na3VO4]
inhibition of ligand-dependent chondrogenesis [1]: not

CCCC(=O)Nc1ncnc2c1ncn2[C@@H]1O[C@@H]2COP(=O)(O)O[C@H]2[C@H]1OC(=O)CCC [dibutyryl-cAMP]
inhibition of ligand-dependent chondrogenesis [1]: not

GDF-5: growth and differentiation factor-5, a member of the bone morphogenetic protein (BMP) family that is involved in joint development
alkaline phosphatase activity (MC3T3-E1 cells): fails to stimulate | mesenchymal aggregation and chondrogenesis (rat limb bud cells): stimulates | decrease of type I collagen mRNA expression (FRC cells [2]): about 20% | increase of aggrecan mRNA expression (FRC cells [2]): ~3 | increase of type II collagen mRNA expression (FRC cells [2]): around 2 | alkaline phosphatase activity [3]: stimulates | expression of aggrecan and type II collagen (RT-PCR) (FRC [4]; 1x10^5 cells per implant): induced expression | cellular morphology of FRC (alcian blue staining, cell shape) (FRC [4]; histology): marked changes in cellular morphology | formation of chondrogenic cell aggregate binding alcian blue stain ([5]; ECM-coated plastic plates (0.01% w/v), 21 days): stimulated the formation of chondrogenic cell aggregate | formation of characteristic nodules ([5]; FRC cultured in the presence of vehicle alone, type IV collagen or fibronectin, 21 days): fails to stimulate the formation of characteristic nodules | chondrogenesis ([5]; FRC's plated on fibronectin, type IV collagen or tissue culture plastic, 3 weeks): failed to stimulate chondrogenesis | chondrogenic nodule formation ([5]; FRC's plated on type I or type II collagen, 3 weeks): stimulated chondrogenic nodule formation | expression level of type II collagen and aggrecan (FRC cells [6]): significant increase | alkaline phosphatase activity and chondrogenesis (Sprague-Dawley rats; CN/HA matrices loaded with 1, 5 and 50 μg, intramuscular in rats): dose-depended increase | chondrogenesis and full terminal differentiation (Sprague-Dawley rats; mineralized collagen combined with rhGDF-5, intramuscular in rats): very little evidence | binding to heterodimer of receptor for BMPs [7]: binds | expression of type II collagen or aggrecan (FRC cells [8]; FRC cells cultured in the absence of type I collagen): fails to stimulate expression | steady state level of type II collagen and aggrecan (FRC cells [8]; FRC cultured with type I collagen): significant increase

IGF-I: growth factor
stimulation of chondrogenesis (FRC [9]): failed to stimulate chondrogenesis

IGF-II: growth factor
stimulation of chondrogenesis (FRC [9]): failed to stimulate chondrogenesis

TGFb
stimulation of chondrogenesis (FRC [9]): completely failed to stimulate chondrogenesis

bFGF: growth factor
stimulation of chondrogenesis (FRC [9]): failed to stimulate chondrogenesis
